For one assay, the target named is human CB2 receptors (Homo sapiens (Human), UniProt P34972). Briefly: functional cAMP assay, CHO cells expressing human CB2 receptors. The assay is classed as cell-based. The method, boiled down:
(§1)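 Cells are seeded 17-24 h ahead, then preincubated in Krebs Ringer bicarbonate buffer with 1 mM IBMX at 30 °C. Compounds act for 30 min at 30 °C, after which lysis and cAMP detection reagents are added for 2 h at room temperature. Time-resolved FRET gives cAMP content, and EC50 values are fitted from it.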

In another assay the target is human CB1 receptors (Homo sapiens (Human), UniProt P21554). The assay can be described thus: functional cAMP assay, CHO cells expressing human CB1 receptors. The assay is classed as cell-based. Summed up:
as §1
Background: cAMP levels reflect the balance of adenylyl cyclase and phosphodiesterase activity.

Each structure is given as a SMILES string. A value given as a limit tells only on which side of the number the result lay.

By EC50 is commonly meant the concentration needed to bring the measured effect to its halfway point.

human CB2 receptors, sequence (P34972 whole entry): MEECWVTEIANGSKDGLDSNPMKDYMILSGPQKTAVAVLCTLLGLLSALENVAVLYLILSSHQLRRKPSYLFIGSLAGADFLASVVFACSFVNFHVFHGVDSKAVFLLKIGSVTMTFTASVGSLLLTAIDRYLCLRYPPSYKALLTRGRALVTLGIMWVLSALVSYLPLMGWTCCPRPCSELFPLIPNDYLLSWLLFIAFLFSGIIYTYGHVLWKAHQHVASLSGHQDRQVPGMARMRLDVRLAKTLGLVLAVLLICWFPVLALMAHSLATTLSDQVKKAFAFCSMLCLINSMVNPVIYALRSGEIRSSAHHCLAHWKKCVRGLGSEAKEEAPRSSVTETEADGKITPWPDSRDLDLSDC
human CB1 receptors, sequence (P21554 whole entry): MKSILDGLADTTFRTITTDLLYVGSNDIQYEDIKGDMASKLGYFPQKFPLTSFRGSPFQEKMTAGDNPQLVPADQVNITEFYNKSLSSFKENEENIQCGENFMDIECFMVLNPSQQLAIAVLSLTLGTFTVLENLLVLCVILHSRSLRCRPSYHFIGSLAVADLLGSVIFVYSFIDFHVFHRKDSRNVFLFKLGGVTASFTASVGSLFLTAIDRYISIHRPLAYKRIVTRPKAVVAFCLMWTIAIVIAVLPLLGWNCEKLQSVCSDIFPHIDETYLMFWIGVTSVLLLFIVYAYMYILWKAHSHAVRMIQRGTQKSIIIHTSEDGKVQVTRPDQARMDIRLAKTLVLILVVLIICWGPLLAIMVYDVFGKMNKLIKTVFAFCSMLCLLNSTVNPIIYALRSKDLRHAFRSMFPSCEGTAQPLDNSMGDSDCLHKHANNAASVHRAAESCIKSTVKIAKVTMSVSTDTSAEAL

Turning to `NC(=O)C1CSCCN1C(=O)c1ccc(C2CC2)c(OCC2CC2)n1` (stereo not drawn) [Example 89, 4-(5-Cyclopropyl-6-cyclopropylmethoxy-pyridine-2-carbonyl)-thiomorpholine-3-carboxylic acid amide], the concentration giving a half-maximal response (EC50) on human CB2 receptors was 318 nM; on human CB1 receptors, > 10000 nM.

As to `CC1(C)CC(C(N)=O)N(C(=O)c2ccc(C3CC3)c(OCC3CC3)n2)C1` (stereo not drawn) [Example 90, 1-(5-Cyclopropyl-6-cyclopropylmethoxy-pyridine-2-carbonyl)-4,4-dimethyl-pyrrolidine-2-carboxylic acid amide], the concentration giving a half-maximal response (EC50) at human CB2 receptors is 14.8 nM; at human CB1 receptors, > 10000 nM.

On to `NC(=O)[C@H]1CCCCN1C(=O)c1ccc(C2CC2)c(OCC2CC2)n1` [Example 91, (+)-1-(5-Cyclopropyl-6-cyclopropylmethoxy-pyridine-2-carbonyl)-piperidine-2-carboxylic acid amide], for which the 50% effective concentration (EC50) at human CB2 receptors was 893 nM; at human CB1 receptors, > 10000 nM.

For `NC(=O)[C@@H]1CCCCN1C(=O)c1ccc(C2CC2)c(OCC2CC2)n1` [Example 92, (−)-1-(5-Cyclopropyl-6-cyclopropylmethoxy-pyridine-2-carbonyl)-piperidine-2-carboxylic acid amide], the EC50 was 101 nM on human CB2 receptors and > 10000 nM at human CB1 receptors.

Take `NC(=O)[C@@H]1CSCCN1C(=O)c1ccc(C2CC2)c(OCC2CC2)n1` [Example 93, (−)-4-(5-Cyclopropyl-6-cyclopropylmethoxy-pyridine-2-carbonyl)-thiomorpholine-3-carboxylic acid amide]: the concentration for a half-maximal effect (EC50) at human CB2 receptors is 327 nM; at human CB1 receptors it was > 10000 nM.

As to `CC1(C)C[C@H](C(N)=O)N(C(=O)c2ccc(C3CC3)c(OCC3CC3)n2)C1` [Example 94, (+)-1-(5-Cyclopropyl-6-cyclopropylmethoxy-pyridine-2-carbonyl)-4,4-dimethyl-pyrrolidine-2-carboxylic acid amide], the EC50 at human CB2 receptors is 80.2 nM; on human CB1 receptors, > 10000 nM.

For `CC1(C)C[C@@H](C(N)=O)N(C(=O)c2ccc(C3CC3)c(OCC3CC3)n2)C1` [Example 95, (−)-1-(5-Cyclopropyl-6-cyclopropylmethoxy-pyridine-2-carbonyl)-4,4-dimethyl-pyrrolidine-2-carboxylic acid amide], the EC50 on human CB2 receptors is 10.4 nM; at human CB1 receptors, > 10000 nM.

As for `NC(=O)C1CSCN1C(=O)c1ccc(C2CC2)c(OCC2CC2)n1` (stereo not drawn) [Example 96, 3-(5-Cyclopropyl-6-cyclopropylmethoxy-pyridine-2-carbonyl)-thiazolidine-4-carboxylic acid amide], the EC50 was 103 nM on human CB2 receptors and > 10000 nM at human CB1 receptors.

For `NC(=O)[C@@H]1CSCN1C(=O)c1ccc(C2CC2)c(OCC2CC2)n1` [Example 97, (−)-3-(5-Cyclopropyl-6-cyclopropylmethoxy-pyridine-2-carbonyl)-thiazolidine-4-carboxylic acid amide], the concentration for a half-maximal effect (EC50) on human CB2 receptors is 72.3 nM; on human CB1 receptors it was > 10000 nM.

For `O=C(c1ccc(N2CC(F)(F)C2)c(OCC2CC2)n1)N1CC2(CCCO2)C1` [Example 99, [6-Cyclopropylmethoxy-5-(3,3-difluoro-azetidin-1-yl)-pyridin-2-yl]-(5-oxa-2-aza-spiro[3.4]oct-2-yl)-methanone], the values for the EC50 at human CB2 receptors and on human CB1 receptors were 305 nM and > 10000 nM, respectively.

Regarding `O=C(c1ccc(N2CC(F)(F)C2)c(OCC2CC2)n1)N1CCC2(CCCO2)C1` (stereo not drawn) [Example 100, [6-Cyclopropylmethoxy-5-(3,3-difluoro-azetidin-1-yl)-pyridin-2-yl]-(1-oxa-7-aza-spiro[4.4]non-7-yl)-methanone], the EC50 on human CB2 receptors was 20.8 nM; on human CB1 receptors, > 10000 nM.

Turning to `O=C(c1ccc(N2CC(F)(F)C2)c(OCC2CC2)n1)N1CCCC12CCC2` [Example 101, (5-Aza-spiro[3.4]oct-5-yl)-[6-cyclopropylmethoxy-5-(3,3-difluoro-azetidin-1-yl)-pyridin-2-yl]-methanone], the EC50 is 4.9 nM on human CB2 receptors and > 10000 nM on human CB1 receptors.

These data come from patent US9303012B2, “Pyridine-2-amides useful as CB2 agonists” (Hoffmann-La Roche Inc., priority 2012, dated 2016).
